Test results as given in patent publication EP4810052A2, “HCRHR2 SELECTIVE POLYPEPTIDES” (Gubra A/S, priority 2023, dated 2026).
Read-outs that look alike come from different tables or passages of the source. Marks after values point to notes of the source that are not given here. Starred links: 1 amine or outer side, 2 acyl side, 3 side chain; linkers in the order of their positions; H or OH if unused. Non-standard residues stand in square brackets, D forms with d. Residues, ends and D or L forms follow the SMILES beside them. Groups on a side chain read outwards from the residue. *: point of attachment. C20 diacid = O=C(O)CCCCCCCCCCCCCCCCCCC(=O)*; γGlu = O=C(O)[C@H](CCC(=O)[*:2])N[*:1]; NMeI = CC[C@H](C)[C@H](NC)C(=O)O; Nle = CCCC[C@H](N)C(=O)O; AEEA = NCCOCCOCC(=O)O; Aib = CC(C)(N)C(=O)O

Tests used:
[1] = Effect on acute food intake in mice; assay type: in vivo; conditions: single subcutaneous dose
In short: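 Male NMRI mice (n=7-8 per group) were fasted from six hours before the dark phase. They received a single subcutaneous peptide dose one hour before dark onset. Hourly food intake was monitored for 72 h and expressed as percent reduction versus vehicle, analysed by one-way ANOVA with Dunnett's test.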

[2] = Chemical stability of purified peptides (RP-UHPLC main peak purity loss); assay type: physicochemical
In short: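 Purity loss is the drop in RP-UHPLC main-peak area fraction (215 nm detection, C8 column at 50 °C) from time zero to day 14 and/or day 28 at 40 °C. Samples held roughly 1.0 mg/ml peptide in 50 mM phosphate, pH 7.5, with other pH targets also tested.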

[3] = PK in mice; assay type: in vivo; design: T½ / MRT: unit: h; conditions: for MRT / T½ / clearance / half-life / Cmax / Tmax: Mouse; for bioavailability / clearance / half-life / Cmax / Tmax: male, in vivo; for bioavailability: NMRI, mouse; for clearance / half-life / Cmax / Tmax: NMRI/RjHan; for half-life: read-out: T½ (converted)
In short: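 Male NMRI/RjHan lean mice, about 8 weeks old after acclimatization, got one peptide IV and another SC at 15 or 50 nmol/kg. Sparse plasma sampling (3 mice per timepoint) ran from 0.17 to 96 h post-dose. LC-MS/MS quantified plasma levels, with parameters from non-compartmental analysis.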

[4] = Dynamic Light Scattering (DLS) of peptide oligomerisation/particle formation; assay type: physicochemical; conditions: for PD (%) / Rh (nm): average of three replica
Method: Samples were prepared by dissolving 800 nmol of each peptide in 400 µl 50 mM phosphate pH 8.0 to a concentration of 2000 µM (ca 10 mg/ml). After fully dissolution for 2 hours on a rocking table, samples were adjusted to pH 7.5 and filtrated through a 0.2 µm Whatman Anotop filter. Comparators were commercially available liraglutide drug product (Victoza®, Novo Nordisk) pH 8.2, and an aliquot of this drug product adjusted to pH 6.7. These samples were filtrated through a 0.02 µm Whatman Anotop filter.
Samples were pipetted as triplicate of 30 µl to an Aurora 384 well microtiter plate, which was centrifuged for 2 minutes at 2200 rpm and then sealed with a Thermo sealing tape 235307. DLS measurements were done in a Wyatt DynaPro platereader III with the following parameters:
The microtiter plate was incubated in a Grant-bio Thermo Shaker PHMP-4 at 40°C with 700 rpm continuous shaking before subsequent DLS measurements. Data analysis was done using Wyatt Dynamics software ver. 7.10.1.21.
Samples were prepared and measured as described in procedure. The hydrodynamic radii (Rh) and associated polydispersity (PD) resulting from cumulant analysis (assuming one species) are shown in the Table 8 as averages of three replica. T0 indicates the measurement at time zero after sample preparation; T5 indicates the measurements of five days of incubation as described above.

[5] = T0, time zero after sample preparation
[6] = T5, five days incubation at 40°C with continuous shaking

SMILES	% FI compared to vehicle, 24 h post-dosing ([1]; 30 nmol/kg)	% FI compared to vehicle, 24 h post-dosing ([1]; 100 nmol/kg)	% FI compared to vehicle, 24 h post-dosing ([1]; 300 nmol/kg)	Purity loss (RP-UPLC analysis) T14-T0 (%) ([2]; pH 7.0, 40°C, 14 days)	Purity loss (RP-UPLC analysis) T28-T0 (%) ([2]; pH 7.0, 40°C, 28 days)	Purity loss (RP-UPLC analysis) T14-T0 (%) ([2]; pH 7.5, 40°C, 14 days)	Purity loss (RP-UPLC analysis) T28-T0 (%) ([2]; pH 7.5, 40°C, 28 days)	Purity loss (RP-UPLC analysis) T14-T0 (%) ([2]; pH 8.0, 40°C, 14 days)	Purity loss (RP-UPLC analysis) T28-T0 (%) ([2]; pH 8.0, 40°C, 28 days)	MRT [3]	T½ [3]	bioavailability ([3]; sc) [%]	clearance ([3]; iv, 15 nmol/kg i.v.) [mL/h/kg]	half-life ([3]; iv, 15 nmol/kg i.v.) [h]	Cmax ([3]; sc, 15 nmol/kg s.c.) [nM]	Tmax ([3]; sc, 15 nmol/kg s.c.) [h]	half-life ([3]; sc, 15 nmol/kg s.c.) [h]	PD (%) [4, 5] [%]	Rh (nm) [4, 5] [nm]	PD (%) [4, 6]	also measured
CC[C@H](C)[C@H](NC)C(=O)N[C@H](C(=O)N[C@@H](CC(C)C)C(=O)N[C@@H](CO)C(=O)N[C@@H](CC(C)C)C(=O)N[C@@H](CC(=O)O)C(=O)N[C@H](C(=O)N1CCC[C@H]1C(=O)N[C@H](C(=O)NCC(=O)N[C@@H](CC(C)C)C(=O)N[C@@H](CC(C)C)C(=O)N[C@@H](CCC(N)=O)C(=O)N[C@H](C(=O)N[C@@H](CC(C)C)C(=O)N[C@@H](CC(C)C)C(=O)N[C@@H](CCC(=O)O)C(=O)N[C@@H](CCC(N)=O)C(=O)N[C@@H](C)C(=O)N[C@@H](CCCNC(=N)N)C(=O)N[C@@H](C)C(=O)N[C@@H](CCCNC(=N)N)C(=O)N[C@@H](C)C(=O)N[C@@H](C)C(=O)N[C@@H](CCCNC(=N)N)C(=O)N[C@@H](CCC(=O)O)C(=O)N[C@@H](CCC(N)=O)C(=O)N[C@@H](C)C(=O)N[C@H](C(=O)N[C@@H](CCCCNC(=O)COCCOCCNC(=O)COCCOCCNC(=O)CC[C@H](NC(=O)CC[C@H](NC(=O)CCCCCCCCCCCCCCCCCCC(=O)O)C(=O)O)C(=O)O)C(=O)N[C@@H](CC(N)=O)C(=O)N[C@@H](C)C(=O)N[C@@H](CCC(=O)O)C(=O)N[C@H](C(=O)N[C@@H](CC(C)C)C(=O)N[C@@H](C)C(=O)N[C@@H](CCC(=O)O)C(=O)N[C@H](C(N)=O)C(C)C)[C@@H](C)CC)[C@@H](C)O)[C@@H](C)CC)[C@@H](C)CC)C(C)C)C(C)C [SEQ ID NO: 6] (H-[NMeI]VLSLDVPIGLLQILLEQARARAAREQATK([AEEA-AEEA-γGlu-γGlu-C20 diacid])NAEILAEV-NH2)	51.61*** %	25.76*** %	12.69*** %	-1.8	-2.0	-1.1	-2.6	-3.1	-7.1	16	14.7	78	3.3	14.7	90	24	16	38.5	5.8	Multimodal	Chemical stability at pH 7.5 after 14 days at 40°C (% degradation) ([2]; pH 7.5, 40°C, 14 days, first value of cell): -1.0%; Chemical stability at pH 7.5 after 28 days at 40°C (% degradation) ([2]; pH 7.5, 40°C, 28 days, second value of cell): -3.5%; particle size / hydrodynamic radii (DLS) ([4]; 2000 µM, pH 7.5, five days incubation at 40°C with continuous shaking): formed larger particles and several species (multimodal); Rh (nm) [4, 6]: 30.6 nm
CCCC[C@H](NC(=O)[C@@H](NC(=O)[C@H](CCC(=O)O)NC(=O)[C@H](C)NC(=O)[C@H](CC(N)=O)NC(=O)C(C)(C)NC(=O)[C@H](CCCCNC(=O)COCCOCCNC(=O)COCCOCCNC(=O)CC[C@H](NC(=O)CC[C@H](NC(=O)CCCCCCCCCCCCCCCCCCC(=O)O)C(=O)O)C(=O)O)NC(=O)[C@H](C)NC(=O)[C@H](CCC(N)=O)NC(=O)[C@H](CCC(=O)O)NC(=O)[C@H](CCCNC(=N)N)NC(=O)[C@H](C)NC(=O)[C@H](C)NC(=O)[C@H](CCCNC(=N)N)NC(=O)[C@H](C)NC(=O)[C@H](CCCNC(=N)N)NC(=O)[C@H](C)NC(=O)[C@H](CCC(N)=O)NC(=O)[C@H](CO)NC(=O)[C@H](CC(C)C)NC(=O)[C@H](CC(C)C)NC(=O)[C@@H](NC(=O)[C@H](CCC(N)=O)NC(=O)[C@H](CC(C)C)NC(=O)[C@H](CC(C)C)NC(=O)CNC(=O)[C@@H](NC(=O)[C@@H]1CCCN1C(=O)[C@@H](NC(=O)[C@H](CC(=O)O)NC(=O)[C@H](CC(C)C)NC(=O)[C@H](CO)NC(=O)[C@H](CC(C)C)NC(=O)[C@@H](NC(=O)[C@@H]1CCCN1)C(C)C)C(C)C)[C@@H](C)CC)[C@@H](C)CC)[C@@H](C)CC)C(=O)N[C@@H](C)C(=O)N[C@@H](CCC(=O)O)C(=O)N[C@H](C(N)=O)C(C)C [SEQ ID NO: 238] (H-PVLSLDVPIGLLQILLSQARARAAREQAK([AEEA-AEEA-γGlu-γGlu-C20 diacid])[Aib]NAEI[Nle]AEV-NH2)	29.73*** %	12.92*** %	7.94*** %	-1.0	-1.2	-3.1	-4.8	-5.1	-9.8	21.4	19.6	60	4.4	19.6	48	24	25.2	5.3	4.8	8.1%	Chemical stability at pH 7.5 after 14 days at 40°C (% degradation) ([2]; pH 7.5, 14 days, 40°C): -1.6%; Chemical stability at pH 7.5 after 28 days at 40°C (% degradation) ([2]; pH 7.5, 28 days, 40°C): -4.6%; Rh (nm) [4, 6]: 4.8 nm
